From US20010016643A1, “Peptide derivatives” (priority 1995, published 2001)
Residues, ends and D or L forms follow the SMILES beside them.

Tests used:
[1] = Lipophilicity relative to human insulin (k′rel) by RP-HPLC; type: physicochemical; conditions: LiChrosorb RP18 HPLC, isocratic elution, sodium phosphate buffer pH 7.3/acetonitrile
Experimental: The lipophilicity of peptides and peptide derivatives relative to human insulin, k′rel, was measured on a LiChrosorb RP18 (5 μm, 4×250 mm) HPLC column by isocratic elution at […] using mixtures of A) 0.1 M sodium phosphate buffer, pH 7.3, containing 10% acetonitrile, and B) 50% acetonitrile in water as eluents. The elution was monitored by following the UV absorption of the eluate at 214 nm. Void time, t0, was found by injecting 0.1 mM sodium nitrate. Retention time for human insulin, tinsulin was adjusted to at least 2t0 by varying the ratio between the A and B solutions. k′rel=(tderivative−t0 /(tinsulin−t0).

[2] = Blood glucose in rabbits pretreated with Insulin Actrapid after SC injection of glucagon or derivative; type: in vivo
Experimental: The resulting solution was sterilized by filtration and transferred to a vial.
Blood was sampled at times: −60, 0, 15, 30, 60, 120, 180 and 240 min, and the glucose concentration determined by the hexokinase method.

| lipophilicity relative to human insulin, k′rel [1] | Compound | blood glucose concentration ([2]; 15 min after SC injection) [mg glucose/100 ml] | blood glucose concentration ([2]; 30 min after SC injection) [mg glucose/100 ml] | blood glucose concentration ([2]; 60 min after SC injection) [mg glucose/100 ml] | blood glucose concentration ([2]; 120 min after SC injection) [mg glucose/100 ml] | blood glucose concentration ([2]; 180 min after SC injection) [mg glucose/100 ml] | blood glucose concentration ([2]; 240 min after SC injection) [mg glucose/100 ml] | blood glucose raising effect ([2]; SC, compared with glucagon) | blood glucose concentration ([2]; time 0 min (SC injection of test substance)) [mg glucose/100 ml] | blood glucose concentration ([2]; time −60 min (at Insulin Actrapid 2 IU/animal, before test substance)) [mg glucose/100 ml] |
| --- | --- | --- | --- | --- | --- | --- | --- | --- | --- | --- |
| 2.3 | CCCC[C@H](NC=O)C(=O)N[C@@H](CC(C)C)C(=O)N[C@@H](Cc1ccccc1)C(=O)N[C@@H](CCCC)C(=O)N[C@@H](Cc1ccc(O)cc1)C(=O)N[C@@H](CCCCN)C(=O)O [For-Nle-Leu-Phe-Nle-Tyr-Lys-OH] (HELM PEPTIDE1{[O=C[*:2]].[Nle].L.F.[Nle].Y.K}$$$$V2.0) |  |  |  |  |  |  |  |  |  |
|  | Lys^30 (N^ε-decanoyl) glucagon [Example 6] | 79 | 93 | 114 | 112 | 116 | 110 | retained in Lys^30(Nε-decanoyl) glucagon but with a prolonged action | 51 | 94 |
